Laboratory results: ChEMBL document CHEMBL4602606, “Differentiating the Pharmacodynamics and Toxicology of Macrolide and Ketolide Antibiotics” (J Med Chem, 2020)
Converted amounts (≈) assume the structure as drawn. Values belong to the molecule of their own block, whether it stands above or below them.

Assays:
[1] = test system: Haemophilus influenzae; assay: Antibacterial activity against Haemophilus influenzae; assay type: functional
[2] = Maximum serum concentration in human at 500 mg, po measured within 2 hrs; assay type: ADME, organism-based; parameters: dose 500 mg, route oral; conditions: in vivo
[3] = Terminal half life in human; assay type: ADME; conditions: read-out: beta t1/2
[4] = Maximum serum concentration in human at 500 mg, po; assay type: ADME; parameters: dose 500 mg, route oral
[5] = test system: Streptococcus pneumoniae; assay: Antibacterial activity against erythromycin-resistant Streptococcus pneumoniae; assay type: functional
[6] = molecular target: Neuronal acetylcholine receptor; alpha3/beta4 (Homo sapiens, UniProt P30926+P32297); assay: Inhibition of human alpha3beta4 nAChR assessed as […] in acetylcholine-induced normalized current at 2 uM (reference value: 78.5 +/- 10 uM); assay type: protein-complex assay
[7] = test system: Streptococcus pneumoniae; assay: Antibacterial activity against erythromycin-susceptible Streptococcus pneumoniae; assay type: functional
[8] = Inhibition of human nAChR expressed in human TE671 cells assessed as reduction in nicotine-induced current response by whole-cell patch-clamp method; assay type: cell-based; conditions: TE-671
[9] = Protein binding in plasma (unknown origin); assay type: ADME, cell-free; conditions: read-out: PPB

Neuronal acetylcholine receptor; alpha3/beta4, sequence (P30926 whole entry): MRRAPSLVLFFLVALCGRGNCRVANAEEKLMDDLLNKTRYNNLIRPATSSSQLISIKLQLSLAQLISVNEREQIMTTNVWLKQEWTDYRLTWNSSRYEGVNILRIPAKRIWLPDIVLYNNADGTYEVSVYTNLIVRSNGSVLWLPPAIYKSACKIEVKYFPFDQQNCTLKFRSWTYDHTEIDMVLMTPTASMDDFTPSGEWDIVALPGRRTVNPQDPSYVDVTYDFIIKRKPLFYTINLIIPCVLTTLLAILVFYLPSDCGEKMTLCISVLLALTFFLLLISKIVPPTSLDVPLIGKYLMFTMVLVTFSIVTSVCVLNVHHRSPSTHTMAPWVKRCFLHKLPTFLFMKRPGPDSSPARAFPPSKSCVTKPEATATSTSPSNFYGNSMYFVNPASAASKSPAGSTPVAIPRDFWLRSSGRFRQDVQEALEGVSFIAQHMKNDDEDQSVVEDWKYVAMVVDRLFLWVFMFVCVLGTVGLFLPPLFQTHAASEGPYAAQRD
Neuronal acetylcholine receptor; alpha3/beta4, sequence (P32297 whole entry): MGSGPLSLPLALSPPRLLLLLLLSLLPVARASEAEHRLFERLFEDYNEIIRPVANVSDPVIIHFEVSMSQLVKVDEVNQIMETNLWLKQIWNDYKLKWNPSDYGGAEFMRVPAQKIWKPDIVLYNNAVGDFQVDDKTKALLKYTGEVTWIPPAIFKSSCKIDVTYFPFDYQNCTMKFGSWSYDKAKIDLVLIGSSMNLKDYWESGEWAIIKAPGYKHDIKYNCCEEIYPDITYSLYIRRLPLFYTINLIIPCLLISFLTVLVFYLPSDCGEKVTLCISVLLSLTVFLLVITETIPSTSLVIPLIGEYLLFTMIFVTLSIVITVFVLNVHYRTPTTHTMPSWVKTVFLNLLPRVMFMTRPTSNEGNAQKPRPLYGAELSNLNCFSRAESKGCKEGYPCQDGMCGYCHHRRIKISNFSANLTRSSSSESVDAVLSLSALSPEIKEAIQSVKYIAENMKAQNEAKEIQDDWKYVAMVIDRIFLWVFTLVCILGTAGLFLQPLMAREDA

MIC [1]: 0.5 to 2 µg/mL (≈ 0.681 to 2.73 µM)
SMILES: CC[C@H]1OC(=O)[C@H](C)[C@@H](O[C@H]2C[C@@](C)(OC)[C@@H](O)[C@H](C)O2)[C@H](C)[C@@H](O[C@@H]2O[C@H](C)C[C@H](N(C)C)[C@H]2O)[C@](C)(O)C[C@@H](C)C(=O)[C@H](C)[C@@H](O)[C@]1(C)O [ERYTHROMYCIN]

Cmax [2]: 350 to 450 µg/mL
MIC [1]: 0.25 µg/mL (≈ 0.334 µM)
half-life [3]: 48 to 96 h
SMILES: CC[C@H]1OC(=O)[C@H](C)[C@@H](O[C@H]2C[C@@](C)(OC)[C@@H](O)[C@H](C)O2)[C@H](C)[C@@H](O[C@@H]2O[C@H](C)C[C@H](N(C)C)[C@H]2O)[C@](C)(O)C[C@@H](C)CN(C)[C@H](C)[C@@H](O)[C@]1(C)O [AZITHROMYCIN]

Cmax [4]: 2.5 µg/mL
SMILES: CC[C@H]1OC(=O)[C@H](C)[C@@H](O[C@H]2C[C@@](C)(OC)[C@@H](O)[C@H](C)O2)[C@H](C)[C@@H](O[C@@H]2O[C@H](C)C[C@H](N(C)C)[C@H]2O)[C@](C)(OC)C[C@@H](C)C(=O)[C@H](C)[C@@H](O)[C@]1(C)O [CLARITHROMYCIN]

SMILES: CC[C@H]1OC(=O)[C@H](C)C(=O)[C@H](C)[C@@H](O[C@@H]2O[C@H](C)C[C@H](N(C)C)[C@H]2O)[C@](C)(OC)C[C@@H](C)C(=O)[C@H](C)[C@H]2N(CCCCn3cnc(-c4cccnc4)c3)C(=O)O[C@]12C [TELITHROMYCIN]
MIC [5]: 0.25 µg/mL (≈ 0.308 µM)
EC50 [6]: 132 µM
MIC [7]: 0.06 µg/mL (≈ 0.0739 µM)
IC50 [8]: 3.5 µM

fraction unbound [9]: < 0.04
SMILES: CC[C@H]1OC(=O)[C@H](C)C(=O)[C@H](C)[C@@H](O[C@@H]2O[C@H](C)C[C@H](N(C)C)[C@H]2O)[C@](C)(OCC=Cc2cnc3ccccc3c2)C[C@@H](C)C(=O)[C@H](C)[C@H]2NC(=O)O[C@@]21C [CETHROMYCIN]
